Reference: paper PMC8953592, “Mechanism of Action and Therapeutic Potential of the β-Hairpin Antimicrobial Peptide Capitellacin from the Marine Polychaeta Capitella teleta” (Marine Drugs, 2022)
Positions of bridges follow the written chain, without caps; N, C: chain ends. Residues, ends and D or L forms follow the SMILES beside them.

What was measured:
Gram-positive bacteria = conditions: Gram-positive test strains
Gram-negative bacteria = conditions: Gram-negative test strains
A. baumanii CI 2675 = conditions: 24 h
[1] = test system: Staphylococcus aureus 209P; conditions: 24 h
Bacillus subtilis B-886 = conditions: B-886, 24 h
[2] = test system: Micrococcus luteus B-1314; conditions: B-1314, 24 h
E. coli ATTC 25922 = conditions: ATTC 25922, 24 h
E. coli CI 3600 = conditions: CI 3600, 24 h
E. coli ML-35p [3] = conditions: 24 h
E. coli CI 214 = conditions: CI 214, 24 h
P. aeruginosa PAO1 = conditions: PAO1, 24 h
K. pneumonia ATCC 700603 = conditions: ATCC 700603, 24 h
E. cloacae CI 4172 = conditions: CI 4172, 24 h
human red blood cells = assay: Hemolytic assay (hemoglobin release); conditions: human erythrocytes
Experimental: To examine the ability of the peptides to permeabilize cytoplasmic membranes of bacterial and mammalian cells, the ONPG test and hemolysis assay were used, respectively. […] The hemolytic activity of AMPs against a suspension of human erythrocytes was determined by the method of double serial dilution in buffered saline followed by incubation for 1.5 h (Figure 2A). […] Next, we used ONPG assay to estimate E. coli inner membrane permeabilization by the peptides.
The hemolytic activity of compounds was performed using human red blood cells (hRBS), in accordance with the previously described approach. Briefly, hRBS of a healthy donor were separated from fresh blood and washed 3 times with ice-cold phosphate-buffered saline (PBS pH 7.4) and centrifuged at 500× g for 10 min; additionally, citrate buffer was added to prevent clotting. Further, supernatant was discarded and erythrocyte suspension was prepared in PBS as 8% (v/v) solution. The test was carried out in the 96-well plate, taking into account two-fold serial dilutions of studied peptides. […] Then the plate was centrifuged at 1000× g for 15 min for the precipitation of erythrocyte. The amount of hemoglobin release was determined by absorption spectroscopy at 405 nm. Triton X-100 (0.1% v/v) was used as a positive control, which underwent a complete lysis of erythrocytes, and PBS working solution was used as a negative control. The percentage hemolysis was calculated by the following formula: Hemolysis (%)=OD405(compound)− OD405 (zero lysis)/OD405(100 % lysis)− OD405 (zero lysis)×100%
The assays were conducted three times. The quantitative data were presented as an average means with standard deviations.

E. coli ML-35p [4] = test system: E. coli ML-35p; parameters: method as in 2 sources, one per row (each row's own in cited_ref): ref 4, 19, 27 = [4]; PMID 33291782; doi:10.3390/md18120620; 4. Panteleev P.V. Tsarev A.V. Safronova V.N. Reznikova O.V. Bolosov I.A. Sychev S.V. Shenkarev Z.O. Ovchinnikova T.V. Structure Elucidation and Functional Studies of a Novel β-Hairpin Antimicrobial Pe || [19]; PMID 26814379; doi:10.1002/psc.2843; 19. Panteleev P.V. Bolosov I.A. Ovchinnikova T.V. Bioengineering and Functional Characterization of Arenicin Shortened Analogs with Enhanced Antibacterial Activity and Cell Selectivity J. Pept. Sci. 2 || [27]; PMID 25558400; doi:10.32607/20758251-2014-6-4-99-109; 27. Shamova O.V. Orlov D.S. Balandin S.V. Shramova E.I. Tsvetkova E.V. Panteleev P.V. Leonova Y.F. Tagaev A.A. Kokryakov V.N. Ovchinnikova T.V. Acipensins—Novel Antimicrobial Peptides from Leukocytes ||| ref 4 = [4]; PMID 33291782; doi:10.3390/md18120620; 4. Panteleev P.V. Tsarev A.V. Safronova V.N. Reznikova O.V. Bolosov I.A. Sychev S.V. Shenkarev Z.O. Ovchinnikova T.V. Structure Elucidation and Functional Studies of a Novel β-Hairpin Antimicrobial Pe; conditions: at a concentration several-fold higher than MIC; cited from earlier work
E. coli MDR CI 1057 = type: cell-based

## CC[C@H](C)[C@@H]1NC(=O)[C@@H](NC(=O)[C@@H](NC(=O)[C@H](CCCNC(=N)N)NC(=O)[C@@H]2CCCN2C(=O)[C@H](CO)NC(=O)[C@@H](N)CCCNC(=N)N)C(C)C)CSSC[C@@H](C(=O)N[C@@H](Cc2c[nH]c3ccccc23)C(=O)NCC(=O)O)NC(=O)[C@H](CCCNC(=N)N)NC(=O)[C@H](CCCNC(=N)N)NC(=O)[C@H](Cc2ccc(O)cc2)NC(=O)[C@@H]2CSSC[C@H](NC(=O)[C@H](C(C)C)NC(=O)[C@H](CCCNC(=N)N)NC1=O)C(=O)N[C@@H](CCCNC(=N)N)C(=O)N[C@@H](CC(N)=O)C(=O)NCC(=O)N[C@@H](C(C)C)C(=O)N2 [CT2]
Gram-positive bacteria
  Geometric mean (GM) of the peptide MICs: 3.17 µM
Gram-negative bacteria
  Geometric mean (GM) of the peptide MICs: 0.46 µM

## CC[C@H](C)[C@@H]1NC(=O)[C@@H](NC(=O)[C@@H](NC(=O)[C@H](CCCNC(=N)N)NC(=O)[C@@H]2CCCN2C(=O)[C@@H](N)CO)C(C)C)CSSC[C@@H](C(=O)N[C@@H](Cc2c[nH]c3ccccc23)C(=O)O)NC(=O)[C@H](CCCNC(=N)N)NC(=O)[C@H](CCCNC(=N)N)NC(=O)[C@H](Cc2ccc(O)cc2)NC(=O)[C@@H]2CSSC[C@H](NC(=O)[C@H](C(C)C)NC(=O)[C@H](CCCNC(=N)N)NC1=O)C(=O)N[C@@H](CCCNC(=N)N)C(=O)N[C@@H](CC(N)=O)C(=O)NCC(=O)N[C@@H](C(C)C)C(=O)N2 [CT3]
Gram-positive bacteria
  Geometric mean (GM) of the peptide MICs: 10.08 µM
Gram-negative bacteria
  Geometric mean (GM) of the peptide MICs: 1.09 µM

## CC[C@H](C)[C@@H]1NC(=O)[C@@H](NC(=O)[C@@H](NC(=O)[C@@H](N)CCCNC(=N)N)C(C)C)CSSC[C@@H](C(=O)N[C@@H](Cc2c[nH]c3ccccc23)C(=O)O)NC(=O)[C@H](CCCNC(=N)N)NC(=O)[C@H](CCCNC(=N)N)NC(=O)[C@H](Cc2ccc(O)cc2)NC(=O)[C@@H]2CSSC[C@H](NC(=O)[C@H](C(C)C)NC(=O)[C@H](CCCNC(=N)N)NC1=O)C(=O)N[C@@H](CCCNC(=N)N)C(=O)N[C@@H](CC(N)=O)C(=O)NCC(=O)N[C@@H](C(C)C)C(=O)N2 [CT4]
Gram-positive bacteria
  Geometric mean (GM) of the peptide MICs: 6.35 µM
Gram-negative bacteria
  Geometric mean (GM) of the peptide MICs: 0.59 µM

## CC[C@H](C)[C@@H]1NC(=O)[C@@H](NC(=O)[C@H](Cc2c[nH]c3ccccc23)NC(=O)[C@@H](N)CCCCN)CSSC[C@@H](C(=O)N[C@@H](CCCNC(=N)N)C(=O)O)NC(=O)[C@H](CCCNC(=N)N)NC(=O)[C@H](CCCNC(=N)N)NC(=O)[C@H](Cc2ccc(O)cc2)NC(=O)[C@@H]2CSSC[C@H](NC(=O)[C@H](C(C)C)NC(=O)[C@H](CCCNC(=N)N)NC1=O)C(=O)N[C@@H](CCCNC(=N)N)C(=O)N[C@@H](CC(N)=O)C(=O)NCC(=O)N[C@@H](C(C)C)C(=O)N2 [CT5]
A. baumanii CI 2675
  Minimum Inhibitory Concentration: 0.5 µM
[1]
  Minimum Inhibitory Concentration: 8 µM
Bacillus subtilis B-886
  Minimum Inhibitory Concentration: 32 µM
[2]
  Minimum Inhibitory Concentration: 8 µM
E. coli ATTC 25922
  Minimum Inhibitory Concentration: 0.5 µM
Gram-positive bacteria
  Geometric mean (GM) of the peptide MICs: 12.7 µM
E. coli CI 3600
  Minimum Inhibitory Concentration: 0.5 µM
E. coli ML-35p [3]
  Minimum Inhibitory Concentration: 0.5 µM
Gram-negative bacteria
  Geometric mean (GM) of the peptide MICs: 1.09 µM
E. coli CI 214
  Minimum Inhibitory Concentration: 0.5 µM
P. aeruginosa PAO1
  Minimum Inhibitory Concentration: 4 µM
K. pneumonia ATCC 700603
  Minimum Inhibitory Concentration: 4 µM
E. cloacae CI 4172
  Minimum Inhibitory Concentration: 4 µM

## CC(C)[C@@H]1NC(=O)CNC(=O)[C@H](CC(N)=O)NC(=O)[C@H](CCCNC(=N)N)NC(=O)[C@@H]2CSSC[C@H](NC1=O)C(=O)N[C@@H](Cc1ccc(O)cc1)C(=O)N[C@@H](CCCNC(=N)N)C(=O)N[C@@H](CCCNC(=N)N)C(=O)N[C@H](C(=O)N[C@@H](Cc1c[nH]c3ccccc13)C(=O)O)CSSC[C@H](NC(=O)[C@@H](NC(=O)[C@@H](N)CCCNC(=N)N)C(C)C)C(=O)N[C@@H](Cc1ccccc1)C(=O)N[C@@H](CCCNC(=N)N)C(=O)N[C@@H](C(C)C)C(=O)N2 [CT6]
Gram-positive bacteria
  Geometric mean (GM) of the peptide MICs: 6.35 µM
Gram-negative bacteria
  Geometric mean (GM) of the peptide MICs: 0.55 µM

## CC[C@H](C)[C@@H]1NC(=O)[C@@H](NC(=O)[C@@H](NC(=O)[C@@H](N)CCCNC(=N)N)C(C)C)CSSC[C@@H](C(=O)N[C@@H](Cc2c[nH]c3ccccc23)C(=O)O)NC(=O)[C@H](CCCNC(=N)N)NC(=O)[C@H](CCCNC(=N)N)NC(=O)[C@H](Cc2ccc(O)cc2)NC(=O)[C@@H]2CSSC[C@H](NC(=O)[C@H](C(C)C)NC(=O)[C@H](CCCNC(=N)N)NC1=O)C(=O)N[C@@H](Cc1ccc(O)cc1)C(=O)N[C@@H](CCCNC(=N)N)C(=O)NCC(=O)N[C@@H](C(C)C)C(=O)N2 [CT7] (H-RVCIRVCYRGVCYRRCW-OH; disulfide 3-16, 7-12)
A. baumanii CI 2675
  Minimum Inhibitory Concentration: 0.125 µM
[1]
  Minimum Inhibitory Concentration: 2 µM
Bacillus subtilis B-886
  Minimum Inhibitory Concentration: 4 µM
[2]
  Minimum Inhibitory Concentration: 1 µM
E. coli ATTC 25922
  Minimum Inhibitory Concentration: 0.25 µM
Gram-positive bacteria
  Geometric mean (GM) of the peptide MICs: 2 µM
Human red blood cells; 128 μM peptide, 1.5 h incubation, PBS, 37 °C, absorbance 405 nm, Triton X-100 = 100%
  maximum level of lysis (hemolysis): ~50%
E. coli CI 3600
  Minimum Inhibitory Concentration: 0.25 µM
E. coli ML-35p [3]
  Minimum Inhibitory Concentration: 0.5 µM
Gram-negative bacteria
  Geometric mean (GM) of the peptide MICs: 0.55 µM
E. coli CI 214
  Minimum Inhibitory Concentration: 0.25 µM
P. aeruginosa PAO1
  Minimum Inhibitory Concentration: 1 µM
K. pneumonia ATCC 700603
  Minimum Inhibitory Concentration: 4 µM
E. cloacae CI 4172
  Minimum Inhibitory Concentration: 2 µM

## CC[C@H](C)[C@@H]1NC(=O)[C@@H](NC(=O)[C@@H](NC(=O)[C@H](CCCNC(=N)N)NC(=O)[C@@H]2CCCN2C(=O)[C@@H](N)CO)C(C)C)CSSC[C@@H](C(=O)N[C@@H](Cc2c[nH]c3ccccc23)C(=O)NCC(=O)O)NC(=O)[C@H](CCCNC(=N)N)NC(=O)[C@H](CCCNC(=N)N)NC(=O)[C@H](Cc2ccc(O)cc2)NC(=O)[C@@H]2CSSC[C@H](NC(=O)[C@H](C(C)C)NC(=O)[C@H](CCCNC(=N)N)NC1=O)C(=O)N[C@@H](CCCNC(=N)N)C(=O)N[C@@H](CC(N)=O)C(=O)NCC(=O)N[C@@H](C(C)C)C(=O)N2 [Cap, capitellacin]
Gram-positive bacteria
  Geometric mean (GM) of the peptide MICs: 8 µM
Human red blood cells; 128 µM, 24 h
  hemolytic effect after 24 h exposure: 50%
Human red blood cells; 24 h, 32 µM = 64× MIC
  concentration above which toxic effect was observed after 24 h: above 32 µM
Gram-negative bacteria
  Geometric mean (GM) of the peptide MICs: 1 µM

## arenicin-1
E. coli ML-35p [4]
  membrane permeabilization after 60 min: almost full membrane permeabilization

## polymyxin B
E. coli MDR CI 1057; E. coli MDR CI 1057, Mueller–Hinton medium containing added NaCl, before passages
  Initial MIC value: 0.125 µM
E. coli MDR CI 1057; E. coli MDR CI 1057, after just 9 passages
  increase in MIC value after 9 passages: 64 fold

## protegrin-1
E. coli ML-35p [4]
  membrane permeabilization after 60 min: almost full membrane permeabilization
